Reference: patent US6642353B1, “Peptide ligands for the erythropoietin receptor” (Chugai Seiyaku Kabushiki Kaisha, priority 2000, dated 2003)
Positions of bridges follow the written chain, without caps; N, C: chain ends. No end group written: not given here.

What was measured:
[1] = Biacore analysis of binding kinetics of Ig-EPOR; settings: known affinity values 0.1-1.1×10^−9 k (Karlsson et al.)
Excerpt: Contaminating bands and degradation products on the gel were minimal. […] The Ig-EPOR protein easily was recoverable in microgram amounts using the procedures described above.

TF-1 cells = assay: TF-1 cell proliferation assay; assay type: cell-based, human
Procedure: To evaluate the biological activities of two representative synthetic peptides containing the 12-mer consensus sequence, peptides ERB1-7 and ERB1-8 were tested for their ability to stimulate proliferation of the EPO-responsive cell line (TF-1).
TF-1 cells were propagated in RPMI 1640 containing 10% BCS and 5 ng/ml GM-CSF. […] Also tested as a negative control was an IL-6 peptide having the sequence […] (SEQ ID NO:87). Peptide concentrations were tested over a 1,000-fold concentration range of 0.02 to 20 μM.

chimeric Ig-EPOR probe = molecular target: T1, chimeric Ig-EPOR probe (Homo sapiens, UniProt P19235); assay: EPOR-specific magnetic bead phage ELISA; assay type: binding; settings: anti-M13 detection
T1 construct: a fusion protein having domains corresponding to murine IgG1 and the extracellular domain (ECD) of the human EPOR; made in house; secreted into the medium
T1 sequence (P01868 98-324 partner limits assumed, one chain of several): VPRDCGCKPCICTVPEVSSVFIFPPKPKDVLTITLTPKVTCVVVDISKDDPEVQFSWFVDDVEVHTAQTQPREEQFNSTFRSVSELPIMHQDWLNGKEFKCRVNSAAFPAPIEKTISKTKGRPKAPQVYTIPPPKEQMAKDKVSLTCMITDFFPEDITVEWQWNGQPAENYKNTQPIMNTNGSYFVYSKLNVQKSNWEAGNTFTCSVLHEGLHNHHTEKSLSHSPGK
Procedure: A magnetic bead ELISA protocol was used to verify that the ERB1 phage clone bound to the chimeric Ig-EPOR probe by specific interactions. The chimeric Ig-EPOR probe was bound to magnetic beads displaying rat anti-murine IgG1, substantially as described above. Samples (100 μl) of 1:2 serial dilutions (PBS and 1% BSA) of a phage lysate were combined with the beads, and the phage allowed to bind the immobilized probe for 1 hr at room temperature. Phage used in this procedure were ERB1 and two negative control phage: HPKF, a clone that binds specifically to a commercially obtained anti-IL-8 mAb, and IL6-B26, a clone that binds specifically to a human IL-6 receptor. After removing unbound phage by washing four times with 200 μl aliquots of TBST (25 mM TrisHCl, pH 7.2, 0.15 M NaCl, 0.1% TWEEN® 20), an HRP-conjugated anti-M13 detection antibody (Pharmacia) diluted 1:5,000 in PBS was added. After incubating (1 hr at room temperature), excess detection antibody was removed by washing and 10 μl for each of the washed bead complexes was transferred to microtiter wells (FALCON® 3912, MICROTEST III, Beckton Dickinson, Oxnard, Calif.) that served as reaction vessels. Each well was developed using the TMB peroxidase substrate and the extent of the peroxidase reaction measured spectrophotometrically, as described in Example 4.

chimeric Ig-EPOR protein [2] = molecular target: T2, chimeric Ig-EPOR protein (Homo sapiens, UniProt P19235); assay: phage ELISA, relative affinities of binding clones for Ig-EPOR; settings: optical density per phage at 50% ERB1 maximum response × 1×10^8; ERB1 = standard
T2 construct: a fusion protein having domains corresponding to murine IgG1 and the extracellular domain (ECD) of the human EPOR; made in house; secreted into the medium
T2 sequence (P01868 98-324 partner limits assumed, one chain of several): as above
Procedure: To better characterize the phage isolates having binding specificity for the EPOR, we compared the relative affinities of the binding clones presented in FIG. 4, using a phage ELISA procedure. Phage stocks of the binding clones were titered in triplicate to accurately determine the concentration of pfu/ml for each lysate. Different isolates were then assayed by ELISA using normalized phage concentrations so that all clones were tested using equivalent numbers of phage. Optical densities in the ELISA corresponding to the equivalent of a 50% maximum response in the ERB1 trial were next determined for each of the different phage isolates. […] The normalized relative affinity (“Rel. Aff.”) for each clone is shown to the right of the clone's peptide sequence in FIG. 4.

[3] = test system: extracellular domains of the receptors for tumor necrosis factor (TNFR); assay: phage binding control, TNFR extracellular domain; settings: results not shown
interleukin-6 (IL-6R) = molecular target: T3, interleukin-6 (IL-6R) (Homo sapiens, UniProt P08887); assay: phage binding control, IL-6R extracellular domain; settings: results not shown
T3 sequence (P08887 20-365 limits assumed): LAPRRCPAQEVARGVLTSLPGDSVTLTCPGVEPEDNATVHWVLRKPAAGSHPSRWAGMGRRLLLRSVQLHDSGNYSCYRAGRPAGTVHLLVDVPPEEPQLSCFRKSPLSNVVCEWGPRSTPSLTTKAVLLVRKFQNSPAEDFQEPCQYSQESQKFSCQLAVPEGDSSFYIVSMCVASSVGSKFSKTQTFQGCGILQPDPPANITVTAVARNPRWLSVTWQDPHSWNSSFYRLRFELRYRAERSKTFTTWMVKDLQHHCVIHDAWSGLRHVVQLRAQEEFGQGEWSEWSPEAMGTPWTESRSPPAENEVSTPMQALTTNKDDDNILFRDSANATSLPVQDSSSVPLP

chimeric Ig-EPOR protein [4] = molecular target: T4, chimeric Ig-EPOR protein (human; murine, UniProt P19235 25-250); assay: control in the peptide inhibition ELISA (FIGS. 6 and 7)
T4 construct: extracellular domain; Secreted from COS-7 cells transfected with pcDNA3-IgG1-EPOR; major species about 59 kDa; also called IgG-EPOR; chimeric receptor; not shown: hinge region, CH2 and CH3 domains of the murine IgG1 heavy chain
T4 sequence (looked up): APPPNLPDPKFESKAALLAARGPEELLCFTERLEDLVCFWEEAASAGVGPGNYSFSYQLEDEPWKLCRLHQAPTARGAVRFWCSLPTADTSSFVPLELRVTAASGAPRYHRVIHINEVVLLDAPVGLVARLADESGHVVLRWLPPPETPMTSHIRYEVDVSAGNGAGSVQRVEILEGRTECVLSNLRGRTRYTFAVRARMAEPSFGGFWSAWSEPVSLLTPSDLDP
Excerpt: Synthetic peptides having the sequences […]-[…] (SEQ ID NO:81), and […]-[…] (SEQ ID NO:82) were synthesized in the cyclic (disulfide-bonded) form using standard procedures (Peninsula Laboratories, Belmont, Calif.).

chimeric Ig-EPOR protein [5] = molecular target: T4, chimeric Ig-EPOR protein; assay: peptide inhibition ELISA (Ig-EPOR binding to EPO-coated plates)
Excerpt: (§1) Thus, the consensus 12-mer peptide sequence given by SEQ ID NO:12 likely was necessary but not sufficient to create synthetic peptides having high affinity for the EPOR.

chimeric Ig-EPOR protein [6] = molecular target: T4, chimeric Ig-EPOR protein; assay: peptide inhibition ELISA: Ig-EPOR binding to EPO-coated plates
Excerpt: as §1

## Ig-EPOR: chimeric protein: ligand binding domain of human EPOR and hinge, CH2 and CH3 domains of murine IgG1
[1]
  binding kinetics: in good agreement with known affinity values

## GGAFCEAVGCGPDRNFYGG [IL-6 peptide, reference compound]
TF-1 cells; any tested concentration up to 20 μM
  stimulation of TF-1 cell proliferation: did not stimulate TF-1 cell proliferation

## DFDVCRRGWVGHCKDWLSDEYASNPSYPVPHSYYLNPP [ERB1]
Chimeric Ig-EPOR probe
  binding to the Ig-EPOR probe: bound specifically
Chimeric Ig-EPOR protein [2]
  normalized relative affinity (Rel. Aff.): 1.0
[3]
  binding to extracellular domain of TNFR: did not bind
interleukin-6 (IL-6R)
  binding to extracellular domain of IL-6R: did not bind

## EPO: recombinant human EPO (R & D Systems)
TF-1 cells; three days culture
  half maximal response (ED50), TF-1 proliferation: 0.05 to 0.1 unit/ml

## GGAFCEAVGCGPDRNFYGG (also called irrelevant IL-6 peptide) [IL-6 peptide]
Chimeric Ig-EPOR protein [4]
  binding result: no binding

## GCRRGWVGQCKAWFN (not fully specified (bridges); also: synthesized as (cyclic form there), N-terminal truncation of ERB1-7) [15-mer peptide 7N-3]
Chimeric Ig-EPOR protein [5]
  binding result: no binding

## CRRGWVGQCKAWFN (not fully specified (bridges); also: synthesized as (cyclic form there), N-terminal truncation of ERB1-7) [14-mer peptide 7N-4]
Chimeric Ig-EPOR protein [5]
  binding result: no binding

## EGCRRGWVGQCKAWFN (disulfide 3-11 (inferred), N-terminal truncation of ERB1-7) [16-mer peptide 7N-2]
Chimeric Ig-EPOR protein [6]
  IC50: ~3.7 µM
